Data on 27 compounds can be found in patent US8952163B2, “Substituted hydroxamic acids and uses thereof” (Millennium Pharmaceuticals, Inc., priority 2010, dated 2015).

For this assay, the target named is T1, purified human HDAC6 (Homo sapiens, UniProt Q9UBN7).
T1 construct: purchased BPS Bioscience 5006
T1 sequence (Q9UBN7 1-1215): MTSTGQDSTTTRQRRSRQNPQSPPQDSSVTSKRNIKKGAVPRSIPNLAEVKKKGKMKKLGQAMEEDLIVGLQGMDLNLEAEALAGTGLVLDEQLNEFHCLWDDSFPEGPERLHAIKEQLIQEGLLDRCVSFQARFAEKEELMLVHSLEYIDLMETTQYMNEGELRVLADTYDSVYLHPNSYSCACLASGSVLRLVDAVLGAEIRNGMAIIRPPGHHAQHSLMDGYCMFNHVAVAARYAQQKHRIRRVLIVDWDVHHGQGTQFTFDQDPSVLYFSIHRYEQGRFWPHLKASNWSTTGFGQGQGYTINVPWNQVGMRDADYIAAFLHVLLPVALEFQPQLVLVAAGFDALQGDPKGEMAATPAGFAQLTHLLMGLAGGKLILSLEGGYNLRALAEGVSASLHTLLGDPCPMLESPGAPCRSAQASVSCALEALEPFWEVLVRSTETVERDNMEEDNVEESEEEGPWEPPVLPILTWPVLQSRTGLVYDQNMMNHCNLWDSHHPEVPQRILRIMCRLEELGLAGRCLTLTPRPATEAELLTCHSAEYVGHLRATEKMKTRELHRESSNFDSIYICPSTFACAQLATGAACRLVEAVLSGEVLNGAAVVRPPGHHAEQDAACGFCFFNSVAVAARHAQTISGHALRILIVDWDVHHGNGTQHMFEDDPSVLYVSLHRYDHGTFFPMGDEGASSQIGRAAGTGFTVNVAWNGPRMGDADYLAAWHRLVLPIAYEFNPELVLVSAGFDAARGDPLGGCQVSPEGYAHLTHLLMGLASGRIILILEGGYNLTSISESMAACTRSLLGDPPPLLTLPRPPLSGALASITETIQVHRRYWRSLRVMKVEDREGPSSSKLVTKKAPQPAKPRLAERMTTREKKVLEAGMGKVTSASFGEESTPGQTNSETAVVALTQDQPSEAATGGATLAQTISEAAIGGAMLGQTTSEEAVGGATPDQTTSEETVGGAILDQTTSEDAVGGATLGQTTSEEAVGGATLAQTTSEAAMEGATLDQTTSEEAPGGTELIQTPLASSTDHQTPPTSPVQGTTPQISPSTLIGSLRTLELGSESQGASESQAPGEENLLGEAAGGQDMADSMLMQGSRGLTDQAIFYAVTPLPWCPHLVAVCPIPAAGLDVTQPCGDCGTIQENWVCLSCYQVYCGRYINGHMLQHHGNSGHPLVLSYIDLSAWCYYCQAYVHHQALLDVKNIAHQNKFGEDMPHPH
Nature of the assay: HDAC6 Enzyme Assay. Type of assay: biochemical. The following applies: test compound at 1.235 μM; substrate Ac-Arg-Gly-Lys(Ac)-AMC, 1 hour at 30° C.; read-out: Percent Inhibition at 1.235 μM. As for the experimental part:
To measure the inhibition of HDAC6 activity, purified human HDAC6 (BPS Bioscience; Cat. No. 5006) is incubated with substrate Ac-Arg-Gly-Lys(Ac)-AMC peptide (Bachem Biosciences; Cat. No. I-1925) for 1 hour at 30° C. in the presence of test compounds or vehicle DMSO control. The reaction is stopped with the HDAC inhibitor trichostatin A (Sigma; Cat. No. T8552) and the amount of Arg-Gly-Lys-AMC generated is quantitated by digestion with trypsin (Sigma; Cat. No. T1426) and subsequent measurement of the amount of AMC released using a fluorescent plate reader (Pherastar, BMG Technologies) set at Ex 340 nm and Em 460 nm. Concentration response curves are generated by calculating the fluorescence increase in test compound-treated samples relative to DMSO-treated controls, and percentage inhibition values at a single concentration or enzyme inhibition (IC50) values are determined from those curves. One skilled in the art will appreciate that the values generated either as percentage inhibition at a single concentration or IC50 values are subject to experimental variation.
As for `O=C(NO)c1cnc2c(c1)CN(C(=O)c1ccc(-c3ccccn3)s1)CC2` [Compound I-42, N-hydroxy-6-[(5-pyridin-2-yl-2-thienyl)carbonyl]-5,6,7,8-tetrahydro-1,6-naphthyridine-3-carboxamide], the inhibition (commonly the change of the read-out against control, counted positive when it falls) at 1.235 µM amounted to 97.5%. Regarding `CCCCOc1ccc(S(=O)(=O)N2CCc3nc(C(=O)NO)ccc3C2)cc1` [Compound I-60, 6-[(4-butoxyphenyl)sulfonyl]-N-hydroxy-5,6,7,8-tetrahydro-1,6-naphthyridine-2-carboxamide], the inhibition at 1.235 µM amounted to 75.8%. In the case of `O=C(NO)c1cnc2c(c1)CN(C(=O)c1[nH]c3ccccc3c1-c1ccccc1)CC2` [Compound I-29, N-hydroxy-6-[(3-phenyl-1H-indol-2-yl)carbonyl]-5,6,7,8-tetrahydro-1,6-naphthyridine-3-carboxamide], the inhibition at 1.235 µM is 97.8%.

For the compound `CCCCS(=O)(=O)N1CCc2ncc(C(=O)NO)cc2C1` [Compound I-58, 6-(butylsulfonyl)-N-hydroxy-5,6,7,8-tetrahydro-1,6-naphthyridine-3-carboxamide], the inhibition at 1.235 µM stood at 94.5%. For the compound `O=C(NO)c1cnc2c(c1)CN(S(=O)(=O)c1ccc(C(F)(F)F)cc1)CC2` [Compound I-62, N-hydroxy-6-{[4-(trifluoromethyl)phenyl]sulfonyl}-5,6,7,8-tetrahydro-1,6-naphthyridine-3-carboxamide], the inhibition at 1.235 µM amounted to 94.7%.

Consider `O=C(NO)c1cnc2c(c1)CCN(C(=O)c1cc3ccccc3s1)C2` [Compound I-4, 7-(1-benzothien-2-ylcarbonyl)-N-hydroxy-5,6,7,8-tetrahydro-1,7-naphthyridine-3-carboxamide], for which the inhibition at 1.235 µM was determined as 97.2%. Regarding `COc1ccc(C(=O)N2CCc3cc(C(=O)NO)cnc3C2)cc1` [Compound I-48, N-hydroxy-7-(4-methoxybenzoyl)-5,6,7,8-tetrahydro-1,7-naphthyridine-3-carboxamide], the inhibition at 1.235 µM was 91.1%.

In the case of `O=C(NO)c1ccc2c(n1)CCN(C(=O)C13CC4CC(CC(C4)C1)C3)C2` [Compound I-22, 6-[1-adamantylcarbonyl]-N-hydroxy-5,6,7,8-tetrahydro-1,6-naphthyridine-2-carboxamide], the inhibition at 1.235 µM was determined as 90.2%. Regarding `O=C(NO)c1cnc2c(c1)CCN(C(=O)C13CC4CC(CC(O)(C4)C1)C3)C2` [Compound I-26, N-hydroxy-7-[(3-hydroxy-1-adamantyl)carbonyl]-5,6,7,8-tetrahydro-1,7-naphthyridine-3-carboxamide], the inhibition at 1.235 µM came out at 94%. To `O=C(NO)c1cnc2c(c1)CN(C(=O)c1cc3ccccc3o1)CC2` [Compound I-44, 6-(1-benzofuran-2-ylcarbonyl)-N-hydroxy-5,6,7,8-tetrahydro-1,6-naphthyridine-3-carboxamide] belongs 94.9%; to `Cn1cccc1C(=O)N1CCc2nc(C(=O)NO)ccc2C1` [Compound I-11, N-hydroxy-6-[(1-methyl-1H-pyrrol-2-yl)carbonyl]-5,6,7,8-tetrahydro-1,6-naphthyridine-2-carboxamide], 73.9%.

On to `O=C(NO)c1cnc2c(c1)CN(C(=O)c1ccc(-c3ccccc3)cc1)CC2` [Compound I-53, 6-(biphenyl-4-ylcarbonyl)-N-hydroxy-5,6,7,8-tetrahydro-1,6-naphthyridine-3-carboxamide], for which the inhibition at 1.235 µM came out at 96.9%. For `O=C(NO)c1ccc2c(n1)CCN(C(=O)c1ccc(Cl)cc1)C2` [Compound I-33, 6-(4-chlorobenzoyl)-N-hydroxy-5,6,7,8-tetrahydro-1,6-naphthyridine-2-carboxamide], the inhibition at 1.235 µM amounted to 68.8%.

Consider `CC(C)(C)C(=O)N1CCc2nc(C(=O)NO)ccc2C1` [Compound I-46, 6-(2,2-dimethylpropanoyl)-N-hydroxy-5,6,7,8-tetrahydro-1,6-naphthyridine-2-carboxamide], for which the inhibition at 1.235 µM amounted to 59%. Consider `O=C(NO)c1cnc2c(c1)CN(C(=O)c1ccc(Cl)cc1)CC2` [Compound I-12, 6-(4-chlorobenzoyl)-N-hydroxy-5,6,7,8-tetrahydro-1,6-naphthyridine-3-carboxamide], for which the inhibition at 1.235 µM came to 94.5%. For the compound `CC(C)(C)c1ccc(C(=O)N2CCc3cc(C(=O)NO)cnc3C2)cc1` [Compound I-41, 7-(4-tert-butylbenzoyl)-N-hydroxy-5,6,7,8-tetrahydro-1,7-naphthyridine-3-carboxamide], the inhibition at 1.235 µM was 93.4%.

Turning to `CCCCS(=O)(=O)N1CCc2nc(C(=O)NO)ccc2C1` [Compound I-61, 6-(butylsulfonyl)-N-hydroxy-5,6,7,8-tetrahydro-1,6-naphthyridine-2-carboxamide], the inhibition at 1.235 µM was -3.95%.

Consider `Cc1nc(C(=O)N2CCc3cc(C(=O)NO)cnc3C2)cs1` [Compound I-10, N-hydroxy-7-[(2-methyl-1,3-thiazol-4-yl)carbonyl]-5,6,7,8-tetrahydro-1,7-naphthyridine-3-carboxamide], for which the inhibition at 1.235 µM was found to be 84.6%.

As to `Cc1nc(-c2ccccn2)sc1C(=O)N1CCc2ncc(C(=O)NO)cc2C1` [Compound I-23, N-hydroxy-6-[(4-methyl-2-pyridin-2-yl-1,3-thiazol-5-yl)carbonyl]-5,6,7,8-tetrahydro-1,6-naphthyridine-3-carboxamide], the inhibition at 1.235 µM stood at 92%. Take `CCCCOc1ccc(S(=O)(=O)N2CCc3ncc(C(=O)NO)cc3C2)cc1` [Compound I-57, 6-[(4-butoxyphenyl)sulfonyl]-N-hydroxy-5,6,7,8-tetrahydro-1,6-naphthyridine-3-carboxamide]: the inhibition at 1.235 µM is 94.1%. As to `CC1(C(=O)N2CCc3ncc(C(=O)NO)cc3C2)CCCCC1` [Compound I-56, N-hydroxy-6-[(1-methylcyclohexyl)carbonyl]-5,6,7,8-tetrahydro-1,6-naphthyridine-3-carboxamide], the inhibition at 1.235 µM was determined as 93%. Turning to `O=C(NO)c1ccc2c(n1)CCN(C(=O)NC13CC4CC(CC(C4)C1)C3)C2` [Compound I-13, N^6-[1-adamantyl]-N^2-hydroxy-7,8-dihydro-1,6-naphthyridine-2,6(5H)-dicarboxamide], the inhibition at 1.235 µM worked out at 70.6%. Take `CC(C)(C)OC(=O)N1CCc2cc(C(=O)NO)cnc2C1` [Compound I-3, tert-butyl 3-[(hydroxyamino)carbonyl]-5,8-dihydro-1,7-naphthyridine-7(6H)-carboxylate]: the inhibition at 1.235 µM was determined as 95.3%.

For the compound `O=C(NO)c1ccc2c(n1)CCN(Cc1ccccc1)C2` [Compound I-38, 6-benzyl-N-hydroxy-5,6,7,8-tetrahydro-1,6-naphthyridine-2-carboxamide], the inhibition at 1.235 µM worked out at 60.2%. Regarding `O=C(NO)c1cnc2c(c1)CN(Cc1ccccc1)CC2` [Compound I-20, 6-benzyl-N-hydroxy-5,6,7,8-tetrahydro-1,6-naphthyridine-3-carboxamide], the inhibition at 1.235 µM came out at 58.6%.

Consider `O=C(NO)c1cnc2c(c1)CN(C(=O)c1cc3ccccc3s1)CC2` [Compound I-52, 6-(1-benzothien-2-ylcarbonyl)-N-hydroxy-5,6,7,8-tetrahydro-1,6-naphthyridine-3-carboxamide], for which the inhibition at 1.235 µM was 97.4%. Take `Cn1cccc1C(=O)N1CCc2ncc(C(=O)NO)cc2C1` [Compound I-39, N-hydroxy-6-[(1-methyl-1H-pyrrol-2-yl)carbonyl]-5,6,7,8-tetrahydro-1,6-naphthyridine-3-carboxamide]: the inhibition at 1.235 µM turned out to be 92.5%.
